# Assays:
# Type in all cases: in vivo
# [1] = test system: brain-derived neurotrophic factor (BDNF); experiment: Striatal BDNF expression after MA (western blot); settings: p.o.; AME 50, EBS 20, rottlerin 20 mg/kg; MA 8 mg/kg i.p. x4; GPx-1 (+/+) and (−/−) mice
# Description: (§1) The mice received four times of MA (8 mg/kg, ip) or saline as a 2 hr-time interval. Chemicals (AME, EBS, and PKC inhibitors) were administrated for 5 consecutive days (twice daily), and were given 2 times at 4 hr and 30 min before the first MA injection as shown in the experimental schedule. Animals were sacrificed at 4 hrs and 3 days after the final MA administration.
# (§2) The western blot assays was performed as described previously (Kim et al., 2003). Tissues were homogenized in lysis buffer, containing 200 mM Tris HCl (pH 6.8), 1% SDS, 5 mM EGTA (ethylene glycol tetraacetic acid), 5 mM EDTA (ethylenediaminetetraacetic acid), 10% glycerol, 1× phosphatase inhibitor cocktail I, 1× protease inhibitor cocktail. Lysate was centrifuged at 12,000×g for 30 min and supernatant fraction was used for Western blot analysis. Proteins (20-50 ug/lane) were separated by 6%, 8%, 10% or 15% sodium dodecyl sulfate-polyacrylamide gel electrophoresis and transferred onto the PVDF membranes. Following transfer, the membranes were preincubated with 5% non-fat milk and incubated overnight at 4° C. with primary antibody against β-actin (1:50000, Sigma, St. Louis, Mo., USA), TH (1:5000, Chemicon), TH phosphor-Ser 19 (1:1000, Chemicon,), TH phosphor-Ser 31 (1:500, Chemicon), TH phosphor-Ser 40 (1:500, Chemicon), F4/80 (1:500, Serotec), GPx1 (1:2500, AbFrontier), PKC (1:5000, Santa Cruz biotechnology, Santa Cruz, Calif., USA), p53 (1:5000, Cell signaling, Beverly, Mass., USA), MDM2 (1:1000, BD Pharmingen, San Jose, Calif., USA), MDM2 phospho-Ser 166 (1:1000, cell signaling), BDNF (1:500, Chemicon), GDNF (1:250, Santa Cruz), COX-2 (1:2000, Cayman, Ann Arbor, MC, USA), IL-6 (1:2000, Abcam, Cambridge, Mass., USA), TNF-a (1:1000, R&D Systems, Mckinley place NE, NM, USA), IFN-γ (1:500, Chemicon) or Iba-1 (1:500, Wako, Osaka, Japan). And then, membranes were incubated with HRP-conjugated secondary anti-rabbit IgG (1:1000, GE healthcare, Piscataway, N.J., USA), anti-mouse IgG (1:1000, Sigma) or anti-goat IgG (1:1000, Sigma) for 2 h. […]
# [2] = test system: reactive oxygen species (ROS); experiment: Striatal ROS formation after MA; settings: striatum, 3 days after final MA; p.o.; AME 50, EBS 20, rottlerin 20 mg/kg; GPx-1 (+/+) and (−/−) mice
# Description: as §1
# The extent of reactive oxygen species (ROS) formation in the striatum was assessed by measuring the convertion from 2′,7′-dichlorofluorescin diacetate (DCFH-DA) to dichlorofluoresin (DCF) as describe by Bourre et al., (2002) with slight modification. Brain homogenates were added to a tube containing 2 ml of PBS with 10 nmole of DCFH-DA, dissolved in methanol. Mixture were incubated at 37° C. for 3 hours and then measured the absorbance at 480 nm excitation and 525 nm emission. DCF is used as a standard.
# tyrosine hydroxylase = experiment: Striatal and nigral TH-like immunoreactivity after MA (immunocytochemistry); settings: p.o., AME 50, EBS 20, rottlerin 20 mg/kg, MA 8 mg/kg i.p. x4, GPx-1 (+/+) and (−/−) mice; for effect on MA-induced reduction in striatal TH-IR: striatum; for effect on MA-induced nigral reduction in TH-IR: substantia nigra pars compacta
# Description: as §1
# Animals were sacrificed at 4 hours and 3 days after the last MA injection. They were anesthetized with 60% urethane and perfused transcardially with 50 ml of 50 mM phosphate buffered saline (PBS), followed by 50 ml of a mixture of 4% paraformaldehyde in PBS. The rate of perfusion was 50 ml/min. The brains were removed, post-fixed at 4° C. for 24 h in the same fixative and then cryoprotected in 30% sucrose in PBS. The brains were cut on a horizontal sliding microstome into 40 μm transverse free-floading sections (Kim et al., 1999).
# The immunocytochemistry was performed as described previously (Kim et al., 2000a, b). Briefly, prior to incubation with the primary antibodies, sections were preincubated with 0.3% hydrogen peroxide in PBS for 30 min (to block endogenous peroxidase activity), then in PBS containing 0.4% Triton X-100 for 20 min and 1% normal serum for 20 min. The sections were then incubated for 48 h at 4° C. in primary antibody against tyrosine hydroxylase (1:500, Chemicon, Termecula, Calif., USA), GPx1 (1:500, AbFrontier, Seoul, Korea), PKC (1:200, Santa Cruz biotechnology INC, CA, USA) or F4/80 (1:50, Serotec, Raleigh, N.C., USA). The sections were further incubated with secondary biotinylated antisera (1:1000 dilution; Vector, Brulingame, Calif.) for 1 hr, and immersed in avidin-biotin-peroxidase complex (ABC Elite kit, Vector) for 1 hr. Sections were always washed three times with PBS (pH 7.4) between each incubation step. 3,3′-diaminobenzidine (DAB) was used as a chromogen.
# interferon (IFN)-γ = experiment: IFN-γ expression after MA (western blot); settings: p.o.; AME 50, EBS 20, rottlerin 20 mg/kg; MA 8 mg/kg i.p. x4; GPx-1 (+/+) and (−/−) mice
# Description: as §1, §2
# GPx-1 = experiment: Striatal glutathione peroxidase (GPx) activity after MA; settings: p.o.; AME 50, EBS 20, rottlerin 20 mg/kg; MA 8 mg/kg i.p. x4; GPx-1 (+/+) mice
# Description: as §1
# GPx were immediately measured from dissected striatal tissues. The tissues were sonicated in ice-cold 50 mM potassium phosphate buffer (pH 7.4, containing 2 mM EDTA), and were centrifuged at 11,000×g for 15 min at 4° C. The resulting supernatants were collected and the protein concentrations were quantified with the Quant-iT assays, using the Qubit™ fluorometer (Invitrogen, Carlsbad, Calif., USA). Cellular GPx activity was measured by the method of Paglia and Valentine (1967) with minor modification (Shin et al., 2008). The incubation mixture contained 1 mM glutathione, 0.2 mM NADPH, and 1.4 IU glutathione reductase in 0.05 M potassium phosphate buffer, pH 7.0. The reaction was initiated by the simultaneous addition of supernatant (0.3-0.8 mg protein) and 0.25 mM H2O2. The change in absorbance at 340 nm was followed by for 4.5 min and 1 UI of GPx activity was defined as the amount required to oxidize 1 μM NADPH/min, based on the molar absorptivity of […] for NADPH.
SMILES,effect on MA-induced reduction in BDNF expression [1],effect on MA-induced increase in ROS [2],effect on MA-induced reduction in striatal TH-IR (tyrosine hydroxylase),effect on MA-induced nigral reduction in TH-IR (tyrosine hydroxylase),effect on MA-induced increase in IFN-γ expression (interferon (IFN)-γ),effect on MA-induced decrease in striatal GPx-1 activity (GPx-1)
"O=c1c2ccccc2[se]n1-c1ccccc1 [EBS, 2-phenyl-1,2-benzisoselenazol-3(2H)-one]",significantly attenuated these reductions,significantly attenuated,attenuated this reduction in striatal TH-IR,significantly attenuated MA-induced nigral reduction in TH-IR,significantly and consistently attenuating effects,inhibited MA-induced decrease
"CC(=O)Oc1ccccc1C(=O)Oc1c(C)occc1=O [AME, 3-(2-methyl-4-pyronyl)-2-acetyloxybenzoate]",significantly attenuated these reductions,significantly attenuated,attenuated this reduction in striatal TH-IR,significantly attenuated MA-induced nigral reduction in TH-IR,significantly and consistently attenuating effects,inhibited MA-induced decrease
CC(=O)c1c(O)c(C)c(O)c(Cc2c(O)c3c(c(C(=O)/C=C/c4ccccc4)c2O)OC(C)(C)C=C3)c1O [rottlerin],significantly attenuated these reductions,significantly attenuated,attenuated this reduction in striatal TH-IR,significantly attenuated MA-induced nigral reduction in TH-IR,significantly and consistently attenuating effects,inhibited MA-induced decrease

# Reference: patent US20120328696A1, “ANTI-PARKINSONIAN COMPOUND ACETYLSALICYLIC ACID MALTOL ESTER” (Hutecs Korea Pharmaceutical Co., Ltd., priority 2008, published 2012)
